Columns and labels:
human CD73 = target: T1, human CD73 (Homo sapiens, UniProt P21589); experiment: Inhibitor activity against CD73 in cell based assay (CD73 expressing CHO-K1 cells); conditions: CHO-K1 cells expressing human CD73, 150 μM AMP, 4 hours of incubation; read-out: CHO-K1 CELL_VARIANT: CD73 IC50
T1 construct: expressed in transfected cells
T1 sequence (P21589 27-549): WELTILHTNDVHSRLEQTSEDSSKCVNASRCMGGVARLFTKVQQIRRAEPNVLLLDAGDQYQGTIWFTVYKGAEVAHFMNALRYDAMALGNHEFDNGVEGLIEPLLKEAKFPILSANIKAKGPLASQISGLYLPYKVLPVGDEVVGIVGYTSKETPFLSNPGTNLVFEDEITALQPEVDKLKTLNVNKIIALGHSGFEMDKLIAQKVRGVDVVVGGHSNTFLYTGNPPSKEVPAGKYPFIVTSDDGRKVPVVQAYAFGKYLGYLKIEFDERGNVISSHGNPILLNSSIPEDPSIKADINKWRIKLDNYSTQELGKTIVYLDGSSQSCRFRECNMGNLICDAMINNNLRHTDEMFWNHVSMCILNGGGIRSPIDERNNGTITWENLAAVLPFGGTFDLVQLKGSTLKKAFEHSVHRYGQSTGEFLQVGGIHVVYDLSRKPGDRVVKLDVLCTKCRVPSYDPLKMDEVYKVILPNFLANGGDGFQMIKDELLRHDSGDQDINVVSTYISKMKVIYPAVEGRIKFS
Method in brief: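 Stable human CD73 CHO-K1 cells, 1×10^4/well, exposed to an 8-point 1:3 compound series (top 10 μM, 0.2% DMSO) plus 150 μM AMP for 4 h. Remaining AMP in the supernatant was read by CellTiter-Glo 2.0 luminescence with 1 μM ATP after 30 min at room temperature. IC50 came from nonlinear regression of % inhibition against cell and media-only controls.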

[1] = target: T2, Human CD73 (amino acid residues 27-549) (Homo sapiens, UniProt P21589); experiment: CD73 enzymatic assay (luciferase-based indirect assay, CellTiter-Glo); assay type: biochemical; conditions: 0.4 nM CD73, 150 μM AMP, 1 hour at room temperature
T2 construct: Human CD73 (amino acid residues 27-549); His tag (N); made in house; host or cells: E. coli
T2 sequence (P21589 27-549): T1 sequence (P21589 27-549)
Method in brief: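 N-His human CD73 (27-549) expressed in E. coli, 0.4 nM, incubated with 150 μM AMP and compound in 50 mM HEPES pH 7.4, 0.01% Tween-20, 1 h at RT. Remaining AMP read via CellTiter-Glo luminescence with 1 μM ATP after 30 min; IC50 from nonlinear regression of % inhibition.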

Compound | IC50 (human CD73) [µM] | IC50 [1] [µM]
Cc1nn(CC(O)CCCl)c(C)c1-c1ccnc(O[C@@H]2CCN(c3cnn(CCO)c(=O)c3Cl)C2)c1 (stereo partly drawn) [P-0064, 4-chloro-5-((3R)-3-((4-(1-(4-chloro-2-hydroxybutyl)-3,5-dimethyl-1H-pyrazol-4-yl)pyridin-2-yl)oxy)pyrrolidin-1-yl)-2-(2-hydroxyethyl)pyridazin-3(2H)-one] | 0.001 to 10 | 0.001 to 10
Cc1nn(CC2(O)COC2)c(C)c1-c1ccnc(O[C@@H]2CCN(c3cn[nH]c(=O)c3Cl)C2)c1 [P-0065, (R)-4-chloro-5-(3-((4-(1-((3-hydroxyoxetan-3-yl)methyl)-3,5-dimethyl-1H-pyrazol-4-yl)pyridin-2-yl)oxy)pyrrolidin-1-yl)pyridazin-3(2H)-one] | 0.001 to 10 | 0.001 to 10
Cc1noc(C)c1-c1ccnc(O[C@@H]2CCN(c3cn[nH]c(=O)c3Br)C2)c1 [P-0066, (R)-4-bromo-5-(3-((4-(3,5-dimethylisoxazol-4-yl)pyridin-2-yl)oxy)pyrrolidin-1-yl)pyridazin-3(2H)-one] | 0.001 to 10 | 0.001 to 10
NC1CC=C(c2ccnc(O[C@@H]3CCN(c4cn[nH]c(=O)c4Cl)C3)c2)CC1 (stereo partly drawn) [P-0067, 5-((3R)-3-((4-(4-aminocyclohex-1-en-1-yl)pyridin-2-yl)oxy)pyrrolidin-1-yl)-4-chloropyridazin-3(2H)-one] | 0.001 to 10 | 0.001 to 10
CC(=O)C1CC=C(c2ccnc(O[C@@H]3CCN(c4cn[nH]c(=O)c4Cl)C3)c2)CC1 (stereo partly drawn) [P-0068, 5-((3R)-3-((4-(4-acetylcyclohex-1-en-1-yl)pyridin-2-yl)oxy)pyrrolidin-1-yl)-4-chloropyridazin-3(2H)-one] | 0.001 to 10 | 0.001 to 10
Cc1nn(C(CO)CCl)c(C)c1-c1ccnc(O[C@@H]2CCN(c3cn[nH]c(=O)c3Cl)C2)c1 (stereo partly drawn) [P-0069, 4-chloro-5-((3R)-3-((4-(1-(1-chloro-3-hydroxypropan-2-yl)-3,5-dimethyl-1H-pyrazol-4-yl)pyridin-2-yl)oxy)pyrrolidin-1-yl)pyridazin-3(2H)-one] | 0.001 to 10 | 0.001 to 10
Cc1nn(C2COC2)c(C)c1-c1ccnc(O[C@@H]2CCN(c3cn[nH]c(=O)c3Cl)C2)c1 [P-0070, (R)-4-chloro-5-(3-((4-(3,5-dimethyl-1-(oxetan-3-yl)-1H-pyrazol-4-yl)pyridin-2-yl)oxy)pyrrolidin-1-yl)pyridazin-3(2H)-one] | 0.001 to 10 | 0.001 to 10
O=c1[nH]ncc(N2CC[C@@H](Oc3cc(C4CCNCC4)ccn3)C2)c1Cl [P-0071, (R)-4-chloro-5-(3-((4-(piperidin-4-yl)pyridin-2-yl)oxy)pyrrolidin-1-yl)pyridazin-3(2H)-one] | 0.001 to 10 | 0.001 to 10
O=c1[nH]ncc(N2CC[C@@H](Oc3cc(C4CCOCC4)ccn3)C2)c1Cl [P-0072, (R)-4-chloro-5-(3-((4-(tetrahydro-2H-pyran-4-yl)pyridin-2-yl)oxy)pyrrolidin-1-yl)pyridazin-3(2H)-one] | 0.001 to 10 | 0.001 to 10
O=c1[nH]ncc(N2CC[C@@H](Oc3cc(C4CCCC4)ccn3)C2)c1Cl [P-0073, (R)-4-chloro-5-(3-((4-cyclopentylpyridin-2-yl)oxy)pyrrolidin-1-yl)pyridazin-3(2H)-one] | 0.001 to 10 | 0.001 to 10
N#CC1CCN(c2ccnc(O[C@@H]3CCN(c4cn[nH]c(=O)c4Cl)C3)c2)CC1 [P-0074, (R)-1-(2-((1-(5-chloro-6-oxo-1,6-dihydropyridazin-4-yl)pyrrolidin-3-yl)oxy)pyridin-4-yl)piperidine-4-carbonitrile] | 0.001 to 10 | 0.001 to 10
O=c1[nH]ncc(N2CC[C@@H](Oc3cc(C4=CCNCC4)ccn3)C2)c1Cl [P-0075, (R)-4-chloro-5-(3-((1′,2′,3′,6′-tetrahydro-[4,4′-bipyridin]-2-yl)oxy)pyrrolidin-1-yl)pyridazin-3(2H)-one] | 0.001 to 10 | 0.001 to 10
Cc1nn(CCO)c(C)c1-c1ccnc(O[C@@H]2CCN(c3cn[nH]c(=O)c3Cl)C2)c1 [P-0076, (R)-4-chloro-5-(3-((4-(1-(2-hydroxyethyl)-3,5-dimethyl-1H-pyrazol-4-yl)pyridin-2-yl)oxy)pyrrolidin-1-yl)pyridazin-3(2H)-one] | 0.001 to 10 | 0.001 to 10
CCn1nc(C)c(-c2ccnc(O[C@@H]3CCN(c4cn[nH]c(=O)c4Cl)C3)c2)c1C [P-0077, (R)-4-chloro-5-(3-((4-(1-ethyl-3,5-dimethyl-1H-pyrazol-4-yl)pyridin-2-yl)oxy)pyrrolidin-1-yl)pyridazin-3(2H)-one] | 0.001 to 10 | 0.001 to 10
O=c1[nH]ncc(N2CC[C@@H](Oc3cc(C4=CCOCC4)ccn3)C2)c1Cl [P-0078, (R)-4-chloro-5-(3-((4-(3,6-dihydro-2H-pyran-4-yl)pyridin-2-yl)oxy)pyrrolidin-1-yl)pyridazin-3(2H)-one] | 0.001 to 10 | 0.001 to 10
CC1(C)CCCN1c1ccnc(O[C@@H]2CCN(c3cn[nH]c(=O)c3Cl)C2)c1 [P-0079, (R)-4-chloro-5-(3-((4-(2,2-dimethylpyrrolidin-1-yl)pyridin-2-yl)oxy)pyrrolidin-1-yl)pyridazin-3(2H)-one] | 0.001 to 10 | 0.001 to 10
CC1(C)CNCCN1c1ccnc(O[C@@H]2CCN(c3cn[nH]c(=O)c3Cl)C2)c1 [P-0080, (R)-4-chloro-5-(3-((4-(2,2-dimethylpiperazin-1-yl)pyridin-2-yl)oxy)pyrrolidin-1-yl)pyridazin-3(2H)-one] | 10 to 100 | 0.001 to 10

More lines, now with the values ahead:

IC50 (human CD73) [µM] | IC50 [1] [µM] | Compound
0.001 to 10 | 0.001 to 10 | COC(=O)C1CC(Cn2nc(C)c(-c3ccnc(O[C@@H]4CCN(c5cn[nH]c(=O)c5Cl)C4)c3)c2C)C1 (stereo partly drawn) [P-0055, methyl (R)-3-((4-(2-((1-(5-chloro-6-oxo-1,6-dihydropyridazin-4-yl)pyrrolidin-3-yl)oxy)pyridin-4-yl)-3,5-dimethyl-1H-pyrazol-1-yl)methyl)cyclobutane-1-carboxylate]
0.001 to 10 | 0.001 to 10 | Cc1nn(CC2CC(C(N)=O)C2)c(C)c1-c1ccnc(O[C@@H]2CCN(c3cn[nH]c(=O)c3Cl)C2)c1 (stereo partly drawn) [P-0056, (R)-3-((4-(2-((1-(5-chloro-6-oxo-1,6-dihydropyridazin-4-yl)pyrrolidin-3-yl)oxy)pyridin-4-yl)-3,5-dimethyl-1H-pyrazol-1-yl)methyl)cyclobutane-1-carboxamide]
0.001 to 10 | 0.001 to 10 | Cc1nn(CC2CC(C#N)C2)c(C)c1-c1ccnc(O[C@@H]2CCN(c3cn[nH]c(=O)c3Cl)C2)c1 (stereo partly drawn) [P-0057, (R)-3-((4-(2-((1-(5-chloro-6-oxo-1,6-dihydropyridazin-4-yl)pyrrolidin-3-yl)oxy)pyridin-4-yl)-3,5-dimethyl-1H-pyrazol-1-yl)methyl)cyclobutane-1-carbonitrile]
0.001 to 10 | 0.001 to 10 | O=C(C1CC1)N1CCC(c2ccnc(O[C@@H]3CCN(c4cn[nH]c(=O)c4Cl)C3)c2)CC1 [P-0058, (R)-4-chloro-5-(3-((4-(1-(cyclopropanecarbonyl)piperidin-4-yl)pyridin-2-yl)oxy)pyrrolidin-1-yl)pyridazin-3(2H)-one]
0.001 to 10 | 0.001 to 10 | NC1CCC(c2ccnc(O[C@@H]3CCN(c4cn[nH]c(=O)c4Cl)C3)c2)CC1 (stereo partly drawn) [P-0059, (R)-5-(3-((4-(4-aminocyclohexyl)pyridin-2-yl)oxy)pyrrolidin-1-yl)-4-chloropyridazin-3(2H)-one]
0.001 to 10 | 0.001 to 10 | CC(=O)C1CCC(c2ccnc(O[C@@H]3CCN(c4cn[nH]c(=O)c4Cl)C3)c2)CC1 (stereo partly drawn) [P-0060, (R)-5-(3-((4-(4-acetylcyclohexyl)pyridin-2-yl)oxy)pyrrolidin-1-yl)-4-chloropyridazin-3(2H)-one]
0.001 to 10 | 0.001 to 10 | Cc1nn(CC2COC2)c(C)c1-c1cc(O[C@@H]2CCN(c3cn[nH]c(=O)c3Cl)C2)ncn1 [P-0061, (R)-4-chloro-5-(3-((6-(3,5-dimethyl-1-(oxetan-3-ylmethyl)-1H-pyrazol-4-yl)pyrimidin-4-yl)oxy)pyrrolidin-1-yl)pyridazin-3(2H)-one]
0.001 to 10 | 0.001 to 10 | CCn1nc(C)c(-c2ccnc(O[C@@H]3CCN(c4cnn(CCO)c(=O)c4Cl)C3)c2)c1C [P-0062, (R)-4-chloro-5-(3-((4-(1-ethyl-3,5-dimethyl-1H-pyrazol-4-yl)pyridin-2-yl)oxy)pyrrolidin-1-yl)-2-(2-hydroxyethyl)pyridazin-3(2H)-one]
0.001 to 10 | 0.001 to 10 | Cc1noc(C)c1-c1ccnc(O[C@@H]2CCN(c3cn[nH]c(=O)c3C#N)C2)c1 [P-0063, (R)-5-(3-((4-(3,5-dimethylisoxazol-4-yl)pyridin-2-yl)oxy)pyrrolidin-1-yl)-3-oxo-2,3-dihydropyridazine-4-carbonitrile]

From patent US12202818B2, “Compounds and methods for CD73 modulation and indications therefor” (Opna Bio SA, priority 2020, dated 2025)
